A word on the IC50: it is the concentration needed to halve the response being measured.

This is an account of results in US20050245563A1 (Millennium Pharmaceuticals, Inc., priority 2003, published 2005).

The structures appear in SMILES notation.

This assay addresses T1, human Chk1 (GST-Chk1) (Homo sapiens, UniProt O14757).
T1 construct: made in house; host or cells: insect cells (baculovirus, Bac-to-Bac)
T1 sequence (O14757 1-476): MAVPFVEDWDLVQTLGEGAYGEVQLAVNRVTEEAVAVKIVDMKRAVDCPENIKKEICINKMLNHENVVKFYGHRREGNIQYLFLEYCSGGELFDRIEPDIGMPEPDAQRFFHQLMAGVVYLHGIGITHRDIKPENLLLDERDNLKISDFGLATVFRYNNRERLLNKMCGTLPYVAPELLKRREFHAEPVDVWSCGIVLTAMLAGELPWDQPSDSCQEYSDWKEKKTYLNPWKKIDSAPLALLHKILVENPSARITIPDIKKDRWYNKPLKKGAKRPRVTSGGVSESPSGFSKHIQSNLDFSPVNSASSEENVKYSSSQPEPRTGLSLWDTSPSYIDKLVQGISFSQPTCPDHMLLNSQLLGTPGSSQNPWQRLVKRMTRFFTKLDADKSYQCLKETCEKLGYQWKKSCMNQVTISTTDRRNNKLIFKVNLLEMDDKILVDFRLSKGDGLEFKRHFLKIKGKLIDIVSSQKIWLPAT
Description: Chk1 FlashPlate kinase assay. Format: biochemical. Conditions: 8.7 nM GST-Chk1, 1 uM ATP, 33P incorporation into peptide substrate. Summed up:
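GST-tagged human Chk1 (8.7 nM), baculovirus-expressed, with 3 uM biotinylated peptide, 1 uM ATP plus ^33P-γ-ATP, in MES/EGTA pH 8.0, DTT, Tween 20, 4% DMSO; 30 min at room temperature. EDTA-stopped; phosphopeptide captured on streptavidin FlashPlates and ^33P counted by scintillation.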
Regarding `Cc1[nH]nc2c1c(=O)n(CCCNC(=O)c1ccc(N(C)C)cc1)c1ccccc21` [Example 78, 4-Dimethylamino-N-[3-(3-methyl-4-oxo-2,4-dihydro-pyrazolo[4,3-c]quinolin-5-yl)-propyl]-benzamide], the IC50 was under 1000 nM.

For `COc1ccc2c(c1)c1n[nH]c(C)c1c(=O)n2CCCNC(=O)OC(C)(C)C` [Example 79, [3-(8-Methoxy-3-methyl-4-oxo-2,4-dihydro-pyrazolo[4,3-c]quinolin-5-yl)-propyl]-carbamic acid tert-butyl ester], the IC50 was under 1000 nM.

In the case of `Cc1[nH]nc2c1c(=O)n(CCCNC(=O)OCc1ccccc1Cl)c1ccccc21` [Example 80, [3-(3-Methyl-4-oxo-2,4-dihydro-pyrazolo[4,3-c]quinolin-5-yl)-propyl]-carbamic acid 2-chloro-benzyl ester], the IC50 was under 1000 nM.

In turn, `Cc1[nH]nc2c1c(=O)n(CCCNC(=O)CCCc1ccccc1)c1ccccc21` [Example 81, N-[3-(3-Methyl-4-oxo-2,4-dihydro-pyrazolo[4,3-c]quinolin-5-yl)-propyl]-4-phenyl-butyramide] came in with an IC50 of under 1000 nM.

Molecule `Cc1[nH]nc2c1c(=O)n(CCCNC(=O)c1cccnc1)c1ccccc21` [Example 82, N-[3-(3-Methyl-4-oxo-2,4-dihydro-pyrazolo[4,3-c]quinolin-5-yl)-propyl]-nicotinamide] returned an IC50 of under 1000 nM.

The molecule `Cc1[nH]nc2c1c(=O)n(CCCNS(=O)(=O)c1ccccc1)c1ccccc21` [Example 83, N-[3-(3-Methyl-4-oxo-2,4-dihydro-pyrazolo[4,3-c]quinolin-5-yl)-propyl]-benzenesulfonamide] returned an IC50 of under 1000 nM.

`Cc1[nH]nc2c1c(=O)n(CCCNC(=O)c1ccccc1Cl)c1ccccc21` [Example 84, 2-Chloro-N-[3-(3-methyl-4-oxo-2,4-dihydro-pyrazolo[4,3-c]quinolin-5-yl)-propyl]-benzamide] displayed an IC50 of under 1000 nM.

`Cc1[nH]nc2c1c(=O)n(CCCNC(=O)c1ccc(C(C)(C)C)cc1)c1ccccc21` [Example 85, 4-tert-Butyl-N-[3-(3-methyl-4-oxo-2,4-dihydro-pyrazolo[4,3-c]quinolin-5-yl)-propyl]-benzamide] yielded a 50% inhibitory concentration (IC50) of under 1000 nM.

Molecule `CC(=O)NCCCn1c(=O)c2c(C)[nH]nc2c2ccccc21` [Example 86, N-[3-(3-Methyl-4-oxo-2,4-dihydro-pyrazolo[4,3-c]quinolin-5-yl)-propyl]-acetamide] returned an IC50 of under 1000 nM.

`Cc1n[nH]c2c1c(=O)n(CCNC(=O)Nc1ccccc1)c1ccccc21` [Example 87]: the IC50 fell in the range of 1000 to 20000 nM.

`COc1ccc(Cl)cc1NC(=O)NCCn1c(=O)c2c(C)n[nH]c2c2ccccc21` [Example 89, 1-(5-Chloro-2-methoxy-phenyl)-3-[2-(3-methyl-4-oxo-1,4-dihydro-pyrazolo[4,3-c]quinolin-5-yl)-ethyl]-urea] gave an IC50 of 1000 to 20000 nM.

Molecule `Cc1[nH]nc2c1c(=O)n(CCNC(=O)c1ccc(Cl)cc1)c1ccccc21` [Example 90, 4-Chloro-N-[2-(3-methyl-4-oxo-2,4-dihydro-pyrazolo[4,3-c]quinolin-5-yl)-ethyl]-benzamide] registered an IC50 of 1000 to 20000 nM.

The molecule `COc1ccc(C(=O)NCCn2c(=O)c3c(C)[nH]nc3c3ccccc32)cc1` [Example 91, 4-Methoxy-N-[2-(3-methyl-4-oxo-2,4-dihydro-pyrazolo[4,3-c]quinolin-5-yl)-ethyl]-benzamide] came in with an IC50 of 1000 to 20000 nM.

Take `Cc1[nH]nc2c1c(=O)n(CCNC(=O)CCc1ccccc1)c1ccccc21` [Example 92, N-[2-(3-Methyl-4-oxo-2,4-dihydro-pyrazolo[4,3-c]quinolin-5-yl)-ethyl]-3-phenyl-propionamide]: the IC50 was 1000 to 20000 nM.

The molecule `Cc1[nH]nc2c1c(=O)n(CCNC(=O)C1CCCCC1)c1ccccc21` [Example 93, Cyclohexanecarboxylic acid [2-(3-methyl4-oxo-2,4-dihydro-pyrazolo[4,3-c]quinolin-5-yl)-ethyl]-amide] displayed an IC50 of 1000 to 20000 nM.

`Cc1[nH]nc2c1c(=O)n(CCNC(=O)C1CCCC1)c1ccccc21` [Example 94, Cyclopentanecarboxylic acid [2-(3-methyl-4-oxo-2,4-dihydro-pyrazolo[4,3-c]quinolin-5-yl)-ethyl]-amide]: the IC50 was in the range of 1000 to 20000 nM.

For the molecule `Cc1[nH]nc2c1c(=O)n(CCCNC(=O)C(Cc1ccc(F)cc1)NC(=O)OC(C)(C)C)c1ccccc21` (stereo not shown) [Example 95, {2-(4-Fluoro-phenyl)-1-[3-(3-methyl-4-oxo-2,4-dihydro-pyrazolo[4,3-c]quinolin-5-yl)-propylcarbamoyl]-ethyl}-carbamic acid tert-butyl ester], the IC50 was 1000 to 20000 nM.

Regarding `Cc1[nH]nc2c1c(=O)n(CCCNC(=O)C(Cc1ccc(Cl)cc1)NC(=O)OC(C)(C)C)c1ccccc21` (stereo not shown) [Example 96, {2-(4-Chloro-phenyl)-1-[3-(3-methyl-4-oxo-2,4-dihydro-pyrazolo[4,3-c]quinolin-5-yl)-propylcarbamoyl]-ethyl}-carbamic acid tert-butyl ester], the IC50 was over 20000 nM.

For `Cc1n[nH]c2c1c(=O)n(CCNC(=O)C(Cc1ccccc1)NC(=O)OC(C)(C)C)c1ccccc21` (stereo not shown) [Example 97, {1-[2-(3-Methyl-4-oxo-1,4-dihydro-pyrazolo[4,3-c]quinolin-5-yl)-ethylcarbamoyl]-2-phenyl-ethyl}-carbamic acid tert-butyl ester], the IC50 is 1000 to 20000 nM.

`Cc1[nH]nc2c1c(=O)n(CCCNC(=O)C(Cc1ccc(OC(C)(C)C)cc1)NC(=O)OC(C)(C)C)c1ccccc21` (stereo not shown) [Example 98, {2-(4-tert-Butoxy-phenyl)-1-[3-(3-methyl-4-oxo-2,4-dihydro-pyrazolo[4,3-c]quinolin-5-yl)-propylcarbamoyl]-ethyl}-carbamic acid tert-butyl ester] came in with an IC50 of 1000 to 20000 nM.

For `Cc1[nH]nc2c1c(=O)n(CCCNC(=O)CCC(NC(=O)OC(C)(C)C)C(=O)OC(C)(C)C)c1ccccc21` (stereo not shown) [Example 99, 2-tert-Butoxycarbonylamino-4-[3-(3-methyl-4-oxo-2,4-dihydro-pyrazolo[4,3-c]quinolin-5-yl)-propylcarbamoyl]-butyric acid tert-butyl ester], the IC50 was 1000 to 20000 nM.

Molecule `Cc1[nH]nc2c1c(=O)n(CCCNC(=O)CCCNC(=O)OC(C)(C)C)c1ccccc21` [Example 100, {3-[3-(3-Methyl-4-oxo-2,4-dihydro-pyrazolo[4,3-c]quinolin-5-yl)-propylcarbamoyl]-propyl}-carbamic acid tert-butyl ester] returned an IC50 of 1000 to 20000 nM.

`Cc1[nH]nc2c1c(=O)n(CCCNC(=O)CCNC(=O)OC(C)(C)C)c1ccccc21` [Example 101, {2-[3-(3-Methyl-4-oxo-2,4-dihydro-pyrazolo[4,3-c]quinolin-5-yl)-propylcarbamoyl]-ethyl}-carbamic acid tert-butyl ester] gave an IC50 of 1000 to 20000 nM.

`Cc1[nH]nc2c1c(=O)n(CCCNC(=O)CNC(=O)OC(C)(C)C)c1ccccc21` [Example 102, {[3-(3-Methyl-4-oxo-2,4-dihydro-pyrazolo[4,3-c]quinolin-5-yl)-propylcarbamoyl]-methyl}-carbamic acid tert-butyl ester] showed an IC50 of 1000 to 20000 nM.

With `Cc1[nH]nc2c1c(=O)n(CCCNC(=O)C1CCC(=O)N1)c1ccccc21` (stereo not shown) [Example 103, 5-Oxo-pyrrolidine-2-carboxylic acid [3-(3-methyl-4-oxo-2,4-dihydro-pyrazolo[4,3-c]quinolin-5-yl)-propyl]-amide], the IC50 was under 1000 nM.

As to `Cc1[nH]nc2c1c(=O)n(CCCNC(=O)[C@@H](N)Cc1ccc(F)cc1)c1ccccc21` [Example 104, 2-Amino-3-(4-fluoro-phenyl)-N-[3-(3-methyl-4-oxo-2,4-dihydro-pyrazolo[4,3-c]quinolin-5-yl)-propyl]-propionamide], the IC50 is under 1000 nM.

In turn, `Cc1n[nH]c2c1c(=O)n(CCNC(=O)C(N)Cc1ccccc1)c1ccccc21` (stereo not shown) [Example 105, 2-Amino-N-[2-(3-methyl-4-oxo-1,4-dihydro-pyrazolo[4,3-c]quinolin-5-yl)-ethyl]-3-phenyl-propionamide] displayed an IC50 of under 1000 nM.

Molecule `Cc1[nH]nc2c1c(=O)n(CCCNC(=O)CCCN)c1ccccc21` [Example 106, 4-Amino-N-[3-(3-methyl-4-oxo-2,4-dihydro-pyrazolo[4,3-c]quinolin-5-yl)-propyl]-butyramide] yielded an IC50 of under 1000 nM.

The molecule `Cc1[nH]nc2c1c(=O)n(CCCNC(=O)C(N)Cc1ccc(OCc3ccccc3)cc1)c1ccccc21` (stereo not shown) [Example 107, 2-Amino-3-(4-benzyloxy-phenyl)-N-[3-(3-methyl-4-oxo-2,4-dihydro-pyrazolo[4,3-c]quinolin-5-yl)-propyl]-propionamide] came in with an IC50 of 1000 to 20000 nM.

`Cc1[nH]nc2c1c(=O)n(CCCNC(=O)C(N)Cc1ccc(O)cc1)c1ccccc21` (stereo not shown) [Example 108, 2-Amino-3-(4-hydroxy-phenyl)-N-[3-(3-methyl-4-oxo-2,4-dihydro-pyrazolo[4,3-c]quinolin-5-yl)-propyl]-propionamide] gave an IC50 of under 1000 nM.

Molecule `NCCCn1c(=O)c2c[nH]nc2c2cc(Cl)ccc21` [Example 109, 5-(3-Amino-propyl)-8-chloro-2,5-dihydro-pyrazolo[4,3-c]quinolin-4-one] had an IC50 of under 1000 nM.
